Assay [1] deals with dry eye-model rat (exorbital lacrimal gland excised). Put plainly: Drug evaluation for corneal disorder in dry eye rat model (Test 5). It is filed as in vivo. The following applies: 0.01% to 1% ophthalmic solutions, 1 μL per shot, twice per day, 4 weeks; ** denotes p<0.01. As for the experimental part: Drug Evaluation for Corneal Disorder in Dry Eye Rat Model
For the corneal disorder in the model rat whose exorbital lacrimal gland is excised, the drug effect was evaluated about hyaluronic acid (HA) which is an existing drug, and the present compound.
Male SD rat was anesthetized with inhalational isoflurane, and the exorbital lacrimal gland thereof was excised to prepare a dry eye-model rat (the conditions to prepare the dry eye-model rat can be changed as necessary, for example, by combining the excision of exorbital lacrimal gland with the medication of streptozotocin or the like). Three weeks after the operation, each vehicle for eye drop (typically phosphate-buffered saline (PBS)), and 0.01%, 0.1%, and 1% the ophthalmic solutions of the present compound (Example 19) were administered to the rat in an awareness at 1 μL per shot, twice per day, for 4 weeks.
The scoring of disorder extent in the site of corneal disorder was evaluated with 4 grades of the evaluation criteria of 0-3 according to Test 3.
The statistical significance for the drug effect was evaluated by nonparametric Tukey's multiple comparison test, in which the result of each test group was compared with that of the vehicle-administration group (PBS) in which the rat's exorbital lacrimal gland is excised.

For assay [2], the target named is T1, mouse semaphorin 3A (Sema3A) (Mus musculus, UniProt O08665).
T1 sequence (O08665 21-772): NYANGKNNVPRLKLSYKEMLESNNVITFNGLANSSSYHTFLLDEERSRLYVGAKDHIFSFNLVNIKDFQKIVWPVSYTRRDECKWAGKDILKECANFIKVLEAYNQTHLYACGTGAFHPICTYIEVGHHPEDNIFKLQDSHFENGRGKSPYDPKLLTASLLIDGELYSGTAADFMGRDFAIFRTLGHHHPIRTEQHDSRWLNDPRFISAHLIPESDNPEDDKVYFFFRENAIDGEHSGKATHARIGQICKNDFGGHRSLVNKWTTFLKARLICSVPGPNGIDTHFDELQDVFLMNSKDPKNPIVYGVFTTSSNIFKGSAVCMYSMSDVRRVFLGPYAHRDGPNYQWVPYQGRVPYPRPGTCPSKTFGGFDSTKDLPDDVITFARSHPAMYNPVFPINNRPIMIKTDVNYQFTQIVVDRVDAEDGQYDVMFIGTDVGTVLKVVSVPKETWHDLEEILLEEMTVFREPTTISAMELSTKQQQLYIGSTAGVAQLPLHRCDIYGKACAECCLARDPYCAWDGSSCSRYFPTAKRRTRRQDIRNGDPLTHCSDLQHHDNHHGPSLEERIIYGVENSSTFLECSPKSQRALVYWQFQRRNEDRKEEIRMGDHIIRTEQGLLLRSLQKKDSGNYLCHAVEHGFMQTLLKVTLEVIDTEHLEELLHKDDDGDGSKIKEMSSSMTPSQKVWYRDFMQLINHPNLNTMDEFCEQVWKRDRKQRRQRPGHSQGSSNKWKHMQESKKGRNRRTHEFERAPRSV
Nature of the assay: Inhibitory activity for the collapse activity caused by Sema3A (growth cone collapse assay, Test 1). As to conditions: chick embryo dorsal root ganglion, 3 units/mL mouse Sema3A, smaller value = more potent inhibition, read-out: residual ratio (%) of Sema3A activity (collapse assay). The assay is classed as cell-based. As for the experimental part:
Inhibitory Activity for the Collapse Activity Caused by Sema3A
96 well-plate (SUMITOMO BAKELITE CO., LTD.) which was beforehand coated with polylysine was further coated with laminin (10 μL laminin, at room temperature, for 1 hour). To each well was added 100 μL of a medium (F12 medium containing 10% fetal bovine serum, 20 ng/mL NGF, 100 unit/mL penicillin, and 100 μg/mL streptomycin). Dorsal root ganglion harvested from 7-8 day-old chick embryo was inoculated thereto, and the culture medium was cultivated under the condition of 5% CO2 and 37° C. for 16-20 hours. And then, each test compound in various concentrations was added to the medium, each test medium was cultivated for 30 minutes, 3 units/mL mouse semaphorin 3A (Sema3A) was added to each medium, and then each test medium was cultivated for more 30 minutes. Then, glutaraldehyde was added to the medium, in which the final concentration of glutaraldehyde was 1%. The medium was left to stand at room temperature for 15 minutes to make the tissue fragment fixed, and the ratio of the retracted growth cone was measured under a microscope.

The text below walks through data of patent publication US11440905B2, “Biheterocyclic compound” (SUMITOMO PHARMA CO., LTD., priority 2016, dated 2022).

Structures are written as SMILES.

Consider `Cn1cc(-c2coc3cc(O)c(O)c(C(=O)OCC(=O)N[C@@H](CCC(=O)O)C(=O)O)c3c2=O)c(=O)c2cc(O)c(O)cc21` [Example 19, N-[({[3-(6,7-Dihydroxy-1-methyl-4-oxo-1,4-dihydroquinolin-3-yl)-6,7-dihydroxy-4-oxo-4H-chromen-5-yl]carbonyl}oxy)acetyl]-L-glutamic acid], for which, in assay [1], the “improvement for corneal disorder (fluorescein staining score 0-3) vs vehicle-administration group (PBS)” value is “marked improvement”. Also, the remaining activity at 1 µM in assay [2] (1 μM test compound) was found to be 4.2%. In addition, the remaining activity at 3 µM in assay [2] (3 μM test compound) was 0%.
